Reference: US10076572B2, “Photodynamic therapy for treating Clostridium difficile infection using chitosan and tetracycline” (priority 2015, dated 2018)
“And” between values parts separate entries of the source, which are not always exact repeats. Equal entries are not always repeated.

How the values were obtained:
C. difficile [1] = experiment: EMA-qPCR analysis of C. difficile DNA (16S rRNA gene) to evaluate cell death and DNA damage; type: cell-based, Clostridium difficile (KCTC 5009); details: UVA + TC (0.5 mg/mL), UVA irradiation 30 min
C. difficile [2] = experiment: Synergistic photodynamic bactericidal activity (PDT with UVA), colony-forming units; type: cell-based, Clostridium difficile (KCTC 5009); details: for Log10 CFU/mL (mean ± SD, n = 3): UVA
Protocol: The standard strain of Clostridium difficile was provided by Korean Collection for Type Cultures (C. difficile, KCTC 5009). C. difficile was cultured at 37° C. in a standard anaerobic condition on Clostridia reinforced agar (Oxoid, Cambridge, CB5 8BZ, UK).
Tetracycline, chitosan (low molecular weight), and ethidium bromide monoazide (EMA) were purchased from Sigma (Sigma Chemical Co., St. Louis, Mo.). A stock solution of tetracycline was prepared in water at a concentration of 10 mg/mL and stored for a maximum of 2 weeks at 4° C. in the dark before use. A stock solution of chitosan (1% w/v) was prepared in 1% acetic acid and used within one month. The light source for UVA was lamp (315-400 nm) for treatment of psoriasis (UV801KL, Waldmann Medical division, Germany). The irradiation procedure was performed in a dark and closed box and C. difficile containing plates were placed at a distance of 10 cm from the light source.
Based on a modification of the method of Tegos (G. P. Tegos, M. R. Hamblin. Phenothiazinium bactericidal photosensitizers are substrates of bacterial multidrug resistance pumps. Antimicrob. Agents Chemother. 50 (2006)196-203.), C. difficile that had been stored at −70° C. was cultured in Clostridial agar medium for 3 days.
After successive subcultures for two days, the cells were collected and suspended in PBS at a concentration of 10^8 cells/mL. The cell suspension was exposed to tetracycline alone at concentrations of 0.05 mg/mL, 0.1 mg/mL, 0.5 mg/mL and 1 mg/mL, or to 0.0125% chitosan containing TC at a concentration of 0.05 mg/mL, 0.1 mg/mL, 0.5 mg/mL and 1 mg/mL for 30 min.
After samples were washed twice with PBS, the bacterial cell suspension was dispensed at a volume of 1000 μL in a plate for irradiation for 5, 10, 20 and 30 min. After irradiation, cells were serially diluted tenfold in PBS to give dilutions of 10^−1 to 10^−8 of the original concentrations, and a 10 μL aliquot of each dilution was spotted on a Clostridial agar plate. After 2 days incubation, the colonies were counted to obtain the number of colony-forming units. C. difficile without treatment with TC, chitosan and light served as the control.

[3] = TC 0.05 mg/mL+UVA, after 30 min irradiation
[4] = TC 0.1 mg/mL+UVA, after 30 min irradiation

`CN(C)[C@@H]1C(O)=C(C(N)=O)C(=O)[C@@]2(O)C(O)=C3C(=O)c4c(O)cccc4[C@@](C)(O)[C@H]3C[C@@H]12` [TC, tetracycline] was tested. Which “Ct value (EMA-qPCR, 16S rRNA)” value (C. difficile [1]) did it give?
Its value is 23.026±0.101 and 23.03 ± 0.101.

What about the “Log10 CFU/mL (mean ± SD, n = 3)” value (C. difficile [2]; 0.05 mg/mL TC, irradiation 0 min) of the same compound?
Its value is 8.11 ± 0.48 Log10 CFU/mL.

And the “Log10 CFU/mL (mean ± SD, n = 3)” value (C. difficile [2]; 0.05 mg/mL TC, irradiation 5 min)?
The value was 8.11 ± 0.78 Log10 CFU/mL.

And the “Log10 CFU/mL (mean ± SD, n = 3)” value (C. difficile [2]; 0.05 mg/mL TC, irradiation 10 min)?
Its value is 8.13 ± 0.40 Log10 CFU/mL.

And the “Log10 CFU/mL (mean ± SD, n = 3)” value (C. difficile [2]; 0.05 mg/mL TC, irradiation 20 min)?
The value was 8.11 ± 0.67 Log10 CFU/mL.

What about the “Log10 CFU/mL (mean ± SD, n = 3)” value (C. difficile [2]; 0.05 mg/mL TC, irradiation 30 min) of the same compound?
The value was 7.14 ± 0.33 Log10 CFU/mL.

What about the “Log10 CFU/mL (mean ± SD, n = 3)” value (C. difficile [2]; 0.1 mg/mL TC, irradiation 0 min) of the same compound?
The value was 8.03 ± 0.39 Log10 CFU/mL.

And the “Log10 CFU/mL (mean ± SD, n = 3)” value (C. difficile [2]; 0.1 mg/mL TC, irradiation 5 min)?
The value was 8.11 ± 0.11 Log10 CFU/mL.

And the “Log10 CFU/mL (mean ± SD, n = 3)” value (C. difficile [2]; 0.1 mg/mL TC, irradiation 10 min)?
The value was 8.13 ± 0.53 Log10 CFU/mL.

And the “Log10 CFU/mL (mean ± SD, n = 3)” value (C. difficile [2]; 0.1 mg/mL TC, irradiation 20 min)?
The value was 8.11 ± 0.21 Log10 CFU/mL.

What about the “Log10 CFU/mL (mean ± SD, n = 3)” value (C. difficile [2]; 0.1 mg/mL TC, irradiation 30 min) of the same compound?
Its value is 7.12 ± 0.38 Log10 CFU/mL.

What about the “Log10 CFU/mL (mean ± SD, n = 3)” value (C. difficile [2]; 0.5 mg/mL TC, irradiation 0 min) of the same compound?
The value was 8.03 ± 0.48 Log10 CFU/mL.

And the “Log10 CFU/mL (mean ± SD, n = 3)” value (C. difficile [2]; 0.5 mg/mL TC, irradiation 5 min)?
The value was 6.02 ± 0.76 Log10 CFU/mL.

And the “Log10 CFU/mL (mean ± SD, n = 3)” value (C. difficile [2]; 0.5 mg/mL TC, irradiation 10 min)?
The value was 5.12 ± 0.10 Log10 CFU/mL.

And the “Log10 CFU/mL (mean ± SD, n = 3)” value (C. difficile [2]; 0.5 mg/mL TC, irradiation 20 min)?
Its value is 5.11 ± 0.27 Log10 CFU/mL.

What about the “Log10 CFU/mL (mean ± SD, n = 3)” value (C. difficile [2]; 0.5 mg/mL TC, irradiation 30 min) of the same compound?
The value was 5.11 ± 0.23 Log10 CFU/mL.

And the “Log10 CFU/mL (mean ± SD, n = 3)” value (C. difficile [2]; 1 mg/mL TC, irradiation 0 min)?
Its value is 8.03 ± 0.39 Log10 CFU/mL.

And the “Log10 CFU/mL (mean ± SD, n = 3)” value (C. difficile [2]; 1 mg/mL TC, irradiation 5 min)?
The value was 5.21 ± 0.11 Log10 CFU/mL.

What about the “Log10 CFU/mL (mean ± SD, n = 3)” value (C. difficile [2]; 1 mg/mL TC, irradiation 10 min) of the same compound?
Its value is 4.11 ± 0.23 Log10 CFU/mL.

What about the “Log10 CFU/mL (mean ± SD, n = 3)” value (C. difficile [2]; 1 mg/mL TC, irradiation 20 min) of the same compound?
The value was 4.11 ± 0.21 Log10 CFU/mL.

What about the “Log10 CFU/mL (mean ± SD, n = 3)” value (C. difficile [2]; 1 mg/mL TC, irradiation 30 min) of the same compound?
The value was 0 Log10 CFU/mL.

What about the “decrease of viable cells” value (C. difficile [2]; [3]) of the same compound?
Its value is 10 times.

And the viable cells (C. difficile [2]; [3])?
The viable cells was 1.12×10^7.

What about the “decrease of viable cells” value (C. difficile [2]; [4]) of the same compound?
Its value is 10 times.

And the viable cells (C. difficile [2]; [4])?
Its viable cells is 1.14×10^7.

What about the viable cells (C. difficile [2]; TC 0.5 mg/mL+UVA, after 5 min irradiation) of the same compound?
The viable cells was 1.10×10^6.

What about the viable cells (C. difficile [2]; TC 0.5 mg/mL+UVA, after 10 min irradiation) of the same compound?
Its viable cells is 1.12×10^5.

What about the viable cells (C. difficile [2]; TC 0.5 mg/mL+UVA, after 20 min irradiation) of the same compound?
Its viable cells is 1.11×10^5.

What about the viable cells (C. difficile [2]; TC 0.5 mg/mL+UVA, after 30 min irradiation) of the same compound?
The viable cells was 1.13×10^5.

What about the viable cells (C. difficile [2]; TC 1.0 mg/mL+UVA, after 5 min irradiation) of the same compound?
The viable cells was 1.21×10^5.

What about the viable cells (C. difficile [2]; TC 1.0 mg/mL+UVA, after 10 min irradiation) of the same compound?
Its viable cells is 1.11×10^4.

And the viable cells (C. difficile [2]; TC 1.0 mg/mL+UVA, after 20 min irradiation)?
The viable cells was 1.13×10^4.

What about the viable cells (C. difficile [2]; TC 1.0 mg/mL+UVA, after 30 min irradiation) of the same compound?
The viable cells was 0.
